Experimental data as given in ChEMBL document CHEMBL1157538, “Discovery of a potent, selective, and orally bioavailable c-Met inhibitor: 1-(2-hydroxy-2-methylpropyl)-N-(5-(7-methoxyquinolin-4-yloxy)pyridin-2-yl)-5-methyl-3-oxo-2-phenyl-2,3-dihydro-1H-pyrazole-4-carboxamide (AMG 458)” (J Med Chem, 2008).
pIC50, pKi: −log10 of the molar value.

Key:
[1] = target: T1, Hepatocyte growth factor receptor (Homo sapiens, UniProt P08581); test: Inhibition of c-Met phosphorylation by HTRF assay
[2] = target: T1, Hepatocyte growth factor receptor; test: Inhibition of HGF-mediated c-Met phosphorylation in human PC3 cells; format: cell-based, PC-3
[3] = Clearance in rat; format: ADME, organism-based; settings: in vivo
[4] = Intrinsic clearance in BALB/c mouse liver microsome; format: ADME; settings: liver microsomes
[5] = Oral bioavailability in rat; format: ADME, organism-based; settings: in vivo
[6] = Intrinsic clearance in human liver microsome; format: ADME; settings: liver microsomes
[7] = Intrinsic clearance in Sprague-Dawley rat liver microsome; format: ADME; settings: liver microsomes
[8] = Half life in rat; format: ADME, organism-based; settings: in vivo

Compound: COc1ccc2c(Oc3ccc(NC(=O)c4c(C)n(CC(C)(C)O)n(-c5ccccc5)c4=O)cc3F)ccnc2c1
- pKi [1]: 8.57
- pIC50 [2]: 7.30

Compound: COc1ccc2c(Oc3ccc(NC(=O)c4c(C)n(C[C@H](C)O)n(-c5ccccc5)c4=O)cc3F)ccnc2c1
- clearance [3]: < 3.33 mL/min/kg
- microsomal CLint [4]: < 45 µL/min/mg
- bioavailability [5]: > 50%
- microsomal CLint [6]: < 55 µL/min/mg
- microsomal CLint [7]: < 60 µL/min/mg
- half-life [8]: 1.9 h
